Consider 2 compounds from PMC8217011, “Natural brominated phenoxyphenols kill persistent and biofilm-incorporated cells of MRSA and other pathogenic bacteria” (Applied Microbiology and Biotechnology, 2020).

In series [1] the test system is Enterobacter cloacae isolate 3678. Description: MIC determination (broth microdilution in LB medium). Type of series: cell-based. The procedure: (§1) The minimal inhibitory concentration (MIC) has been determined according to the CSLI guidelines (CLSI [2012]). Briefly, in a sterile polystyrene U-bottom 96-well plate, a 2-fold serial dilution ranging from 100 to 0.78 μM of testing compounds has been prepared in 50 μL MHB. A freshly inoculated S. aureus culture was grown until OD600 nm of approx. 0.6 and diluted to 10^6 CFU/mL in MHB. Finally, 50 μL of the latter cell suspension was added to each well and then incubated statically for 18–24 h at 37 °C. MIC was determined using BacTiterGlo ATP assay (Promega, Madison, WI, USA) and Tecan Infinite F200 Pro (Tecan, Männedorf, Switzerland). Moxifloxacin and DMSO were used as positive and negative control, respectively. Sublethal concentrations of colistin (0.1 μM) were used in some experiments to increase the permeability of the gram-negative cell envelope for compound testing. For E. cloacae, a broth microdilution assay was performed using a serial 2-fold dilution in 96-well flat-bottomed plates (Falcon, BD Bioscience, Heidelberg) of both PPs in broth LB medium (Roth, Karlsruhe) at a concentration range of 50–0.024 μM.
Background: In broth dilution the organism is exposed to a series of concentrations in liquid medium.

Series [2] has as its system S. aureus mutant M1 (parental strain ATCC 25923). The series can be described thus: MIC of spontaneously resistant mutant. The series is classed as cell-based, Staphylococcus aureus. Conditions: for MIC90: Staphylococcus aureus, ATCC25923. The protocol:
as §1
(§2) Spontaneous resistant mutants have been generated with 2-bromo-PP and 3-bromo-PP to further investigate the mechanism of antibacterial action and resistance. Since isolation of spontaneous resistant mutants in one step was not successful on solid media containing 2-bromo-PP or 3-bromo-PP (i.e. resistance frequency < 10^−7 at 5-fold MIC), enrichment was done by passaging bacteria daily in liquid media containing increasing sublethal concentrations of PPs. […] Moreover, we observed cross-resistance between PPs since 2-bromo-PP-resistant mutants were also resistant against 3-bromo-PP and vice versa (Fig. 4a; Table 2).

The subject of series [3] is S. aureus mutant M4 (parental strain Mu50). The series can be described thus: MIC of spontaneously resistant mutant. Type of series: cell-based, Staphylococcus aureus. The note with it: for MIC90: Staphylococcus aureus. The procedure:
as §1, §2

A further series concerns CLS-54 (CLS 300227). Description: Cytotoxicity assay (Resazurin). Type of series: cell-based. Conditions: Homo sapiens, 48 h, 2 days. The protocol:
(§3) Human cell lines were grown in their respective growth medium. Cells have been counted using a haemocytometer, and cell density was adjusted to 10^6 cells/mL. A 2-fold serial dilution was prepared in 96-well U-bottom plates, and cells were sown into the wells to a final density of […]. After 2 days at 37 °C and 5% CO2, 10 μL of a 100 μg/mL Resazurin dye solution was added to each well and was incubated for several hours. The reaction was inactivated with 100 μL of a 10% formalin solution per well. Finally, the fluorescence was quantified in a plate reader with 535-nm excision and 590-nm emission wavelengths.

Another series concerns HEK293 (CLS 300192). Description: Cytotoxicity assay (Resazurin). The series is classed as cell-based. The note with it: Homo sapiens, HEK293, 48 h, 2 days. The procedure: as §3
In general terms: Resazurin is reduced to fluorescent resorufin, in cell work by metabolically active cells.

The test system of the next series is HepG2 (CLS 300198). The series can be described thus: Cytotoxicity assay (Resazurin). The series is classed as cell-based. The note with it: Homo sapiens, HepG2, 48 h, 2 days. The procedure:
as §3

A further series concerns HuH7 (CLS 300156). Description: Cytotoxicity assay (Resazurin). The series is classed as cell-based. Conditions: Homo sapiens, Huh-7, 48 h, 2 days. The procedure: as §3
For the next series, the system named is MRC-5 (ATCC CCL-171). The series can be described thus: Cytotoxicity assay (Resazurin). The series is classed as cell-based. The note with it: Homo sapiens, MRC5, 48 h, 2 days. The protocol:
as §3

A further series concerns THP-1 (ATCC TIB-202). The series can be described thus: Cytotoxicity assay (Resazurin). The note with it: Homo sapiens, THP-1, 48 h, 2 days. The series is classed as cell-based. The procedure:
as §3

Series [4] deals with persisters of P. aeruginosa POA1. Description: Antipersister activity assay (Resazurin). The series is classed as cell-based. Conditions: Pseudomonas aeruginosa, 24 h, read-out: MIC against persisters.
Series [5] has as its system preformed biofilms of P. aeruginosa POA1. Description: Antibiofilm activity assay, viability by Resazurin reduction. Type of series: cell-based, Pseudomonas aeruginosa.
Series [6] concerns actively replicating MRSA strain Mu50. Description: Killing kinetics, actively replicating cells (CFU plating). Conditions: MHB, start 10^6 CFU/mL; for time of first antibacterial effects: 4× MIC; for time until viability reached the detection limit: PPs at 4× MIC, moxifloxacin 20 μM, detection limit 10^2 CFU/mL. Type of series: cell-based, Staphylococcus aureus. The protocol:
S. aureus cells were freshly incubated in MHB until an OD600 nm of approx. 0.6 was reached. Next, the cells were diluted to 10^6 CFU/mL in 5 mL MHB. […] At certain time points (0, 0.5, 1, 3, 6, 8, 24 h), 100 μL was removed from the culture, diluted and plated onto MHA plates. After 24-h incubation, colonies were counted and viability (expressed as colony-forming units per mL (CFU/mL)) was calculated considering the dilution factor.

Series [7] concerns stationary phase-induced persistent cells of MRSA strain Mu50. The series can be described thus: Persister killing kinetics (CFU plating). Type of series: cell-based, Staphylococcus aureus. The note with it: start 10^8 CFU/mL. The procedure:
For persister killing kinetics, cells were grown overnight until a density of OD600 nm > 5.0 was reached and then washed three times with PBS. Next, cell density was adjusted to 10^8 CFU/mL in 5 mL PBS. […] Analysis was performed as described above.

In a further series the test system is S. aureus. The series can be described thus: Generation of spontaneous resistant mutants. The series is classed as cell-based, Staphylococcus aureus. The note with it: for fold increased MIC of mutants: after 15 passages in liquid media with increasing sublethal concentrations; for resistance frequency: one-step selection on solid media at 5-fold MIC.
From the text: as §2

For another series, the system named is human PBMNCs. More on the design: method as in Mayer et al. [2019]. Conditions: ref Mayer et al. [2019]; cited from earlier work.

Molecules are shown by their SMILES. pIC50: −log10 of the molar value. Converted amounts (≈) assume the structure as drawn. “And” between values parts separate entries of the source, which are not always exact repeats. Equal entries are not always repeated.

What is called MIC90 is an inhibitory concentration at the 90% level, which refers to growth in some studies and to a panel of isolates in others. The term pIC50 denotes the negative decadic logarithm of the IC50, by convention in mol/L. Read a low pIC50 as a high IC50. A word on the MIC: it is the smallest concentration in the dilution series that meets the test's criterion for growth inhibition. Consider `Oc1c(Br)cc(Br)cc1Oc1ccc(Br)cc1Br` [2-bromo-PP, 4,6-dibromo-2-(2′,4′-dibromophenoxy)phenol], for which the MIC90 is 12.5 µM and 6.27 µg/mL in series [1]; 1.56 µM and 0.78 µg/mL in series [2]; 1.56 µM and 0.78 µg/mL in series [3]. In addition, the pIC50 with CLS-54 (CLS 300227) was below 4.00; in the series on HEK293 (CLS 300192) it was 4.90; in the series on HepG2 (CLS 300198) it was 4.30; with HuH7 (CLS 300156), below 4.00; with MRC-5 (ATCC CCL-171) it was below 4.00; in the series on THP-1 (ATCC TIB-202), 5.20. Also, the MIC in series [4] stood at 12.5 µM (≈ 6.27 µg/mL). For the same compound, in series [5], the “concentration of complete inhibition of cell viability in biofilms” value came out at 25 µM. In addition, in [6], the “time of first antibacterial effects” value was 3 h. For the same compound, the “time until viability reached the detection limit” value in series [6] was 8 h. The “time until viability reduced to the detection limit” value in series [7] (PPs at 4× MIC, NH125 10 μM, detection limit 10^2 CFU/mL) came out at 8 h. In the series on S. aureus, the “fold increased MIC of mutants” value came out at 4 fold. Moreover, the resistance frequency in the series on S. aureus is on record as < 10^−7. Also, the cytotoxicity entry in the series with human PBMNCs is “low cytotoxicity”.

With `Oc1c(Br)cc(Br)c(Br)c1Oc1ccc(Br)cc1Br` [3-bromo-PP, 3,4,6-tribromo-2-(2′,4′-dibromophenoxy)phenol], the MIC90 in [1] was 12.5 µM and 7.26 µg/mL; in [2], 3.12 µM and 1.81 µg/mL; in series [3], 3.12 µM and 1.81 µg/mL. Besides, the “MIC shift against 3-bromo-PP” value in series [2] (mutant M1 raised against 2-bromo-PP, vs parental strain) is recorded as 4 ×; in [3] (mutant M4 raised against 3-bromo-PP, vs parental strain Mu50) it was 32 ×. Besides, the pIC50 in the series with CLS-54 (CLS 300227) is below 4.00; in the series with HEK293 (CLS 300192) it was 5.51; with HepG2 (CLS 300198), 4.60; in the series on HuH7 (CLS 300156) it was below 4.00; in the series on MRC-5 (ATCC CCL-171) it was 4.00; in the series with THP-1 (ATCC TIB-202), 4.30. The MIC in [4] was 50 µM (≈ 29 µg/mL). Moreover, in [5], the “concentration of complete inhibition of cell viability in biofilms” value came to 50 µM. Further, the “time of first antibacterial effects” value in series [6] worked out at 6 h. Moreover, in series [6], the “time until viability reached the detection limit” value is on record as 8 h. Further, in [7] (3-bromo-PP at 4× MIC, moxifloxacin control, 24 h), the “decrease of viability of persistent cells after 24 h” value amounted to 2 logs. The “fold increased MIC of mutants” value in the series with S. aureus came to 32 fold. Moreover, the resistance frequency with S. aureus is on record as < 10^−7. Moreover, the cytotoxicity result in the series on human PBMNCs was “low cytotoxicity”.
